The values that follow are results of earlier work, collected in patent US12018060B2 (HANMI PHARM CO., LTD., priority 2014, dated 2024).

For this data set the following is noted: after one year of administration.

Consider `CCCCCCCCCCC[C@@H](C[C@@H]1OC(=O)[C@H]1CCCCCC)OC(=O)[C@H](CC(C)C)NC=O` [Orlist®, Orlistat], for which the body weight decrease entry is recorded as “about 4 kg”.
